How the values were obtained:
Assay type in all cases: in vivo
colorectal cancer (MC38) [1] = experiment: colorectal cancer (MC38) tumor-bearing model in C57BL/6 mice, GSK583 combined with atezolizumab; details: for tumor growth (tumor volume progression): atezolizumab 150 μg/mouse i.p. Days 0, 4, 11, GSK583 1 mg/kg i.v. once every 4 days, 4 doses, compared to IgG control
Experimental: (§1) Test substances atezolizumab (Roche) and IgG control antibody (in VivoMAb human IgG1 isotype control; BioXCell, BE0297) were prepared in saline. GSK583 was formulated as a 20× stock solution in DMSO and diluted to the dosing concentration with saline containing 5% polyoxyl 35 castor oil (Cremophor EL) before use.
(§2) Experimental animals and tumor lines: SPF-grade male wild-type C57BL/6 mice (6 to 8 weeks old, 20 to 25 g) were purchased from the Laboratory Animal Resources Center, Tsinghua University. The cells used in the experiment were murine colorectal cancer cells (MC38), which were purchased from the Cell Bank of Peking Union Medical College.
According to the method shown in (A and B of FIG. 3), the mice were subcutaneously inoculated with MC38 cells at a concentration of 5×10^6 cells/mL and 0.1 mL/mouse. When the tumor grew to a volume within the range of 100 mm^3, the mice were randomly divided into 4 groups based on tumor volume, with 6 to 8 mice per group, and dosing was initiated. The dosing regimen was as follows: (i) blank control (IgG control, 150 μg/mouse) group; (ii) GSK583 (1 mg/kg) group; (iii) atezolizumab (150 μg/mouse) group; (iv) atezolizumab (150 μg/mouse)+GSK583 (1 mg/kg). GSK583 was administered via intravenous injection once every 4 days for a total of 4 doses; IgG control and atezolizumab were administered via intraperitoneal injection on Days 0, 4, and 11 for a total of 3 doses. The day of grouping and dosing was recorded as Day 0. During the dosing process, the animals were weighed every 2 to 3 days, and the long and short diameters of the tumor were measured with a vernier caliper. The tumor size was calculated by the formula: (½)×long diameter×(short diameter)^2. The experiment was terminated on Day 15. After the mice were euthanized and dissected, the tumor was removed and weighed, and the tumor inhibition rate was calculated.

colorectal cancer (MC38) [2] = experiment: colorectal cancer (MC38) tumor-bearing model in WT and RIP2−/− C57BL/6 mice, atezolizumab; details: for tumor growth (tumor volume progression): 150 μg/mouse i.p. Days 0, 4, 11, 18; for tumor weight: compared to corresponding control group
Experimental: Test substances atezolizumab (Roche) and IgG control antibody (in VivoMAb human IgG1 isotype control; BioXCell, BE0297) were prepared in saline. Experimental animals and tumor lines: SPF-grade male wild-type (WT) C57BL/6 mice (20 to 25 g) and RIP2 knockout (RIP2^−/−) mice (6 to 8 weeks old, 20 to 25 g) were purchased from Shanghai Model Organisms Center, Inc. The mice were generated using CRISPR-Cas9 technology and bred at the Laboratory Animal Resources Center, Tsinghua University. The cells used in the experiment were murine colorectal cancer cells (MC38), which were purchased from the Cell Bank of Peking Union Medical College.
According to the method shown in (A and B of FIG. 1), the mice were subcutaneously inoculated with MC38 cells at a concentration of 5×10^6 cells/mL and 0.1 mL/mouse. When the tumor grew to a volume within the range of 100 mm^3, WT mice and RIP2^−/− mice were randomly divided into 2 groups based on tumor volume, with 6 to 8 mice per group, and dosing was initiated. The dosing regimen was as follows: (i) WT-blank control (WT-IgG control, 150 μg/mouse) group; (ii) WT-atezolizumab (150 μg/mouse) group; (iii) RIP2^−/−-blank control (RIP2^−/−-IgG control, 150 μg/mouse) group; (iv) RIP2^−/−-atezolizumab (150 μg/mouse) group. IgG control and atezolizumab were administered via intraperitoneal injection on Days 0, 4, 11, and 18 for a total of 4 doses. The day of grouping and dosing was recorded as Day 0. During the dosing process, the animals were weighed every 2 to 3 days, and the long and short diameters of the tumor were measured with a vernier caliper. The tumor size was calculated by the formula: (1/2)×long diameter×(short diameter)^2. The experiment was terminated on Day 20. After the mice were euthanized and dissected, the tumor was removed and weighed, and the tumor inhibition rate was calculated by the formula: [([…])/average tumor weight of the control group]×100%.

colorectal cancer (MC38) [3] = experiment: colorectal cancer (MC38) tumor-bearing model in C57BL/6 mice, GSK583 combined with pembrolizumab; details: Day 20; pembrolizumab 150 μg/mouse i.p.; GSK583 1 mg/kg i.v. once every 4 days; compared to IgG control
Experimental: as §1, with “pembrolizumab (Merck & Co., Inc.)” for “atezolizumab (Roche)”
as §2
According to the method shown in (A and B of FIG. 7), the mice were subcutaneously inoculated with MC38 cells at a concentration of 5×10^6 cells/mL and 0.1 mL/mouse. When the tumor grew to a volume within the range of 100 mm^3, the mice were randomly divided into 3 groups based on tumor volume, with 6 to 7 mice per group, and dosing was initiated. […] The day of grouping and dosing was recorded as Day 0. During the dosing process, the animals were weighed every 2 to 3 days, and the long and short diameters of the tumor were measured with a vernier caliper. The tumor size was calculated by the formula: (½)×long diameter×(short diameter)^2. […]

Molecule	tumor growth (tumor volume progression) (colorectal cancer (MC38) [1])	inhibitory effect on tumor growth, RIP2−/− mice compared to WT mice (colorectal cancer (MC38) [2]; 150 μg/mouse i.p., tumor volume)	tumor growth (tumor volume progression) (colorectal cancer (MC38) [2]; RIP2−/− mice, compared to RIP2−/−-IgG control)	tumor weight (colorectal cancer (MC38) [2]; RIP2−/− mice, end of dosing (Day 20))	tumor growth (tumor volume progression) (colorectal cancer (MC38) [2]; WT mice, compared to WT-IgG control)	tumor weight (colorectal cancer (MC38) [2]; WT mice, end of dosing (Day 20))	anti-tumor effect (tumor weight, tumor weight inhibition rate), RIP2−/− mice compared to WT mice (colorectal cancer (MC38) [2]; end of dosing (Day 20))	tumor weight (colorectal cancer (MC38) [1]; end of dosing (Day 15), compared to control group)	tumor growth (tumor volume progression) (colorectal cancer (MC38) [3])
CC(C)(C)S(=O)(=O)c1ccc2nccc(Nc3n[nH]c4ccc(F)cc34)c2c1 [GSK583]	no significant inhibitory effect on tumor growth	–	–	–	–	–	–	–	–
atezolizumab: programmed death-ligand 1 (PD-L1) inhibitor, atezolizumab (Roche)	significantly inhibited tumor growth	significantly improved	significantly inhibited tumor growth	significantly reduced tumor weight	significantly inhibited tumor growth	significantly reduced tumor weight	significantly stronger than that in WT mice	significantly lower than that in the control group	–
pembrolizumab: programmed death 1 (PD-1) inhibitor, pembrolizumab (Merck & Co., Inc.)	–	–	–	–	–	–	–	–	significantly inhibited tumor growth
